The values that follow come from US20230255873A1, “COSMETIC OR DERMATOLOGICAL PEPTIDE-BASED TREATMENT OF THE SKIN AND ITS INTEGUMENTS” (Sederma, priority 2020, published 2023).

The star is where a group is joined. Palmitoyl = CCCCCCCCCCCCCCCC(=O)*

The test system of one assay is P. acnes. The assay can be described thus: P. acnes growth curve (time to OD600 nm = 0.5). It is filed as cell-based, Propionibacterium acnes. Conditions: for Time (in hour) to reach OD600 nm = 0.5: vehicle 42-44 h. The procedure: 1—P. acnes growth curve (same protocol as described above at point 1.4)
P. acnes is thawed and grown over 3 days in M20 media. Then, optical density at 600 nm (OD600) is measured and 2×10^6 CFU*/mL are plated in well plates. P. acnes is then treated with 6 ppm, 9 ppm and 12 ppm of peptides. To follow bacterial cell multiplication, OD600 is measured regularly for about 1 week. […] Statistical evaluations are performed on results using a Student t test. Two independent experiments are performed (N=2).

The subject of assay [1] is normal human keratinocytes (NHK). The assay is described as follows: Involucrin quantification by immunohistochemistry in NHK. It is filed as cell-based. Particulars: 5 ppm. The protocol: Normal human keratinocytes (NHK) are grown on wells plate. When subconfluence was reached, cells received various concentrations of the peptides. After few days, evaluation of differentiation is compared to solvent control under microscope and cells are fixed to allow the study of involucrin by immunohistochemistry.
Involucrin is an early marker of keratinocytes differentiation. The below table show the percentage of variation of involucrin vs. Control.

In assay [2] the target is extracellular lipases of P. acnes (Propionibacterium acnes). The assay is described as follows: cell-based or functional assay.

In the case of “Pal-KTSKT-OH (Palmitoyl-KTSKT-OH; SMILES CCCCCCCCCCCCCCCC(=O)N[C@@H](CCCCN)C(=O)N[C@H](C(=O)N[C@@H](CO)C(=O)N[C@@H](CCCCN)C(=O)N[C@H](C(=O)O)[C@@H](C)O)[C@@H](C)O) [other preferred peptide of the invention, palmitoyl pentapeptide KTSKT]”, the “Delay in P. acnes growth versus vehicle” value in the assay with P. acnes (6 ppm) is “+5 h”; with P. acnes (9 ppm), “+13 h”; in the assay with P. acnes (12 ppm), “+43 h”. The “Time (in hour) to reach OD600 nm = 0.5” value amounted to 47.7 h in the assay on P. acnes (6 ppm), 55.2 h in the assay with P. acnes (9 ppm) and 85.1 h with P. acnes (12 ppm). In addition, the “Involucrin (% var vs. Control)” value in assay [1] is reported as “+125%; p < 0.01”.

“Pal-KTSKSA-OH (Palmitoyl-KTSKSA-OH; SMILES CCCCCCCCCCCCCCCC(=O)N[C@@H](CCCCN)C(=O)N[C@H](C(=O)N[C@@H](CO)C(=O)N[C@@H](CCCCN)C(=O)N[C@@H](CO)C(=O)N[C@@H](C)C(=O)O)[C@@H](C)O) [other preferred peptide of the invention, palmitoyl hexapeptide KTSKSA]”: the “Delay in P. acnes growth versus vehicle” value in the assay with P. acnes (6 ppm) is reported as “+5 h”; with P. acnes (9 ppm) it was “+15 h”; in the assay on P. acnes (12 ppm), “+18 h”. Also, the entries for the “Time (in hour) to reach OD600 nm = 0.5” value with P. acnes (6 ppm), in the assay on P. acnes (9 ppm) and in the assay with P. acnes (12 ppm) were 47.3 h, 57.9 h and 60.5 h, respectively. In assay [1], the “Involucrin (% var vs. Control)” value is reported as “+152%; p < 0.01”.

Regarding Pal-GKTSKS-OH, the “Delay in P. acnes growth versus vehicle” value is listed as “+2 h” in the assay on P. acnes (6 ppm), “+12 h” in the assay on P. acnes (9 ppm) and “+26 h” in the assay on P. acnes (12 ppm). Also, the “Time (in hour) to reach OD600 nm = 0.5” value with P. acnes (6 ppm) is 45.6 h; with P. acnes (9 ppm), 56.2 h; in the assay on P. acnes (12 ppm), 70.2 h.

B1: Pal-KTSKS-OH (peptide)
peptide: Palmitoyl-KTSKS-OH
SMILES: CCCCCCCCCCCCCCCC(=O)N[C@@H](CCCCN)C(=O)N[C@H](C(=O)N[C@@H](CO)C(=O)N[C@@H](CCCCN)C(=O)N[C@@H](CO)C(=O)O)[C@@H](C)O
Consider B1, for which, in assay [2], the Reduction in lipase activity of P. acnes (4-MUO fluorescent probe), variation (%) vs solvent control, 6 ppm of peptide was -22%; the Reduction in lipase activity of P. acnes (4-MUO fluorescent probe), variation (%) vs solvent control, 9 ppm of peptide is -64%; the Reduction in lipase activity of P. acnes (4-MUO fluorescent probe), variation (%) vs solvent control, 12 ppm of peptide was -88%.
